Assay results reported in patent publication US10526316B2, “Quinoxaline and pyridopyrazine derivatives as PI3Kβ inhibitors” (Janssen Pharmaceutica NV, priority 2015, dated 2020).
pIC50, pKd: −log10 of the molar value. Read-outs that look alike come from different tables or passages of the source.

Tests used:
[1] = biological target: T1, PI3Kβ (Homo sapiens, UniProt P42338); test: Enzyme binding assay (KINOMEscan, DiscoveRx); settings: PIK3Cβ_h, read-out: Kd PIK3Cβ_h
T1 construct: purchased DiscoveRx Corporation, San Diego (contract service, KINOMEscan)
Outline: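 Reported Kd (nM) reflects inhibitor binding to the kinase, as measured by KINOMEscan technology.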

[2] = biological target: T2, PI3Kδ (Homo sapiens, UniProt O00329); test: Enzyme binding assay (KINOMEscan, DiscoveRx); settings: PIK3Cδ_h
T2 construct: purchased DiscoveRx Corporation, San Diego (contract service, KINOMEscan)
T2 sequence (O00329 1-1044): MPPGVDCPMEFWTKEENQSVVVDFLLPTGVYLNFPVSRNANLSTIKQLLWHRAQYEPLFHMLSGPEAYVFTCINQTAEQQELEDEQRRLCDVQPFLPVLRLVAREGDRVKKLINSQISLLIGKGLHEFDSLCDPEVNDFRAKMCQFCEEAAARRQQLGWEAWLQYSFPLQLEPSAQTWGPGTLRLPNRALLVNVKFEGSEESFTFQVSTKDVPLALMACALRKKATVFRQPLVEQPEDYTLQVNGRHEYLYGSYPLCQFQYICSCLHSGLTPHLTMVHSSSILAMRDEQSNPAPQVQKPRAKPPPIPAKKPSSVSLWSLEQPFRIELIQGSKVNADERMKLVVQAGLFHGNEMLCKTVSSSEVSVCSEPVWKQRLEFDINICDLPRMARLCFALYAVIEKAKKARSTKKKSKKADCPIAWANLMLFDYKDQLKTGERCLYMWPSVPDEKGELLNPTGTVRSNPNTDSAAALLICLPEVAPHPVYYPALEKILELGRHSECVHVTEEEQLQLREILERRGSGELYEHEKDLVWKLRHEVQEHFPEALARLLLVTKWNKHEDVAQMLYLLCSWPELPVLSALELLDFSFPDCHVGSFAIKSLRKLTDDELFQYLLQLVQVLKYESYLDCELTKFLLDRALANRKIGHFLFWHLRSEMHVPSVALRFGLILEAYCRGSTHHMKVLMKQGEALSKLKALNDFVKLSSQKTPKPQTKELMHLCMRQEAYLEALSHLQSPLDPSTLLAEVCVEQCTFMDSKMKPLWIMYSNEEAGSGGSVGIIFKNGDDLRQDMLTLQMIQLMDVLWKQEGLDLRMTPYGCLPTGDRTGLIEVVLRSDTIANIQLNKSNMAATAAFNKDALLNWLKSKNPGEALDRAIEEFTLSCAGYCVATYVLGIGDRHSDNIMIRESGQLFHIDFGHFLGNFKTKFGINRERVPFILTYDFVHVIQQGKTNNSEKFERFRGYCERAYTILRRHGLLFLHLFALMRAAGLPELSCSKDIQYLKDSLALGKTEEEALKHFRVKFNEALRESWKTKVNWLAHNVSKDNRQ
Outline: (§1)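 Kinase binding measured via KINOMEscan, reported as affinity.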

[3] = test system: Akt phosphorylated at Ser473 in PC-3 cells; test: Cellular assay: phosphorylation of Akt at Ser473 in PC-3 cells (MSD ELISA); assay type: cell-based; settings: PC-3 cells, 60 min compound incubation, MSD ELISA, read-out: IC50 pAkt_S473
Outline: (§2)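 PC-3 cells were exposed to compound or 0.3% DMSO for 60 min at 37° C, 5% CO2, then lysed in ice-cold buffer. Phospho-Akt was captured on site-specific antibody-coated plates and detected with Sulfo-tag anti-total Akt by electrochemiluminescence. IC50 values came from five-concentration response curves.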

[4] = test system: Akt phosphorylated at Thr308 in PC-3 cells; test: Cellular assay: phosphorylation of Akt at Thr308 in PC-3 cells (MSD ELISA); assay type: cell-based; settings: PC-3 cells, 60 min compound incubation, MSD ELISA, read-out: IC50 pAkt_Thr308
Outline: as §2

[5] = biological target: T3, kinase enzymes (Homo sapiens, UniProt P42345); test: Enzyme binding assay (KINOMEscan, DiscoveRx), further kinases of Table A; settings: MTOR_h
T3 construct: purchased DiscoveRx Corporation, San Diego (contract service, KINOMEscan)
Outline: as §1

[6] = biological target: T4, kinase enzymes (Homo sapiens, UniProt P42336); test: as above; settings: PIK3Cα_h
T4 construct: purchased DiscoveRx Corporation, San Diego (contract service, KINOMEscan)
Outline: as §1

[7] = biological target: T5, kinase enzymes (Homo sapiens, UniProt P48736); test: as above; settings: PIK3Cγ_h
T5 construct: purchased DiscoveRx Corporation, San Diego (contract service, KINOMEscan)
Outline: as §1

T4 sequence (P42336 whole entry): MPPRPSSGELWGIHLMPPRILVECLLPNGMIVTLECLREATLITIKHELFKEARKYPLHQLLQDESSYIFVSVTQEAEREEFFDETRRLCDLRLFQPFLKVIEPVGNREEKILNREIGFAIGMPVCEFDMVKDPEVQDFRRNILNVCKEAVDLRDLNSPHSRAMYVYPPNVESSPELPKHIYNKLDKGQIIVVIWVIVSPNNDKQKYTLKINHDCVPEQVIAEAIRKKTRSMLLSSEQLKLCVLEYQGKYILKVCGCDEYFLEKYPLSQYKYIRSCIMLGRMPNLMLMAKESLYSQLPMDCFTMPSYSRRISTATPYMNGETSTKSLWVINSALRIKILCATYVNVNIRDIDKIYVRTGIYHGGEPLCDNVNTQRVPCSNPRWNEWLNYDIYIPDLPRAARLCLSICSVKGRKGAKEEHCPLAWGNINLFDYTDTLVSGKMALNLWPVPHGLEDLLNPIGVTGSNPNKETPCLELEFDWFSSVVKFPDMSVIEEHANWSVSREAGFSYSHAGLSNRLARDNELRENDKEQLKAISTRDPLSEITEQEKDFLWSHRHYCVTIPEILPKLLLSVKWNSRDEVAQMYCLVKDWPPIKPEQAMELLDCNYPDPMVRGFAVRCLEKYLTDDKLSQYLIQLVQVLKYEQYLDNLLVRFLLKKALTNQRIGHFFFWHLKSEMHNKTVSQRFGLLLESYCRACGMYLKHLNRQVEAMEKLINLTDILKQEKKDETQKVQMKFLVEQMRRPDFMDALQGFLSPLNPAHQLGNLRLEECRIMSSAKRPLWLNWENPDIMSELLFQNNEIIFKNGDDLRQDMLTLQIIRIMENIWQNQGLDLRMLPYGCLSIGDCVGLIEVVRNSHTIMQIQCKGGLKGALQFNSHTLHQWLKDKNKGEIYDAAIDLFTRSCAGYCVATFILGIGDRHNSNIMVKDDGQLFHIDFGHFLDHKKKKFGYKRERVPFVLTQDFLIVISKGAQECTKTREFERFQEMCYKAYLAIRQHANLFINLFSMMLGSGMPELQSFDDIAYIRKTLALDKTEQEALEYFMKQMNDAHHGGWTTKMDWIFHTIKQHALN
T1 sequence (P42338 whole entry): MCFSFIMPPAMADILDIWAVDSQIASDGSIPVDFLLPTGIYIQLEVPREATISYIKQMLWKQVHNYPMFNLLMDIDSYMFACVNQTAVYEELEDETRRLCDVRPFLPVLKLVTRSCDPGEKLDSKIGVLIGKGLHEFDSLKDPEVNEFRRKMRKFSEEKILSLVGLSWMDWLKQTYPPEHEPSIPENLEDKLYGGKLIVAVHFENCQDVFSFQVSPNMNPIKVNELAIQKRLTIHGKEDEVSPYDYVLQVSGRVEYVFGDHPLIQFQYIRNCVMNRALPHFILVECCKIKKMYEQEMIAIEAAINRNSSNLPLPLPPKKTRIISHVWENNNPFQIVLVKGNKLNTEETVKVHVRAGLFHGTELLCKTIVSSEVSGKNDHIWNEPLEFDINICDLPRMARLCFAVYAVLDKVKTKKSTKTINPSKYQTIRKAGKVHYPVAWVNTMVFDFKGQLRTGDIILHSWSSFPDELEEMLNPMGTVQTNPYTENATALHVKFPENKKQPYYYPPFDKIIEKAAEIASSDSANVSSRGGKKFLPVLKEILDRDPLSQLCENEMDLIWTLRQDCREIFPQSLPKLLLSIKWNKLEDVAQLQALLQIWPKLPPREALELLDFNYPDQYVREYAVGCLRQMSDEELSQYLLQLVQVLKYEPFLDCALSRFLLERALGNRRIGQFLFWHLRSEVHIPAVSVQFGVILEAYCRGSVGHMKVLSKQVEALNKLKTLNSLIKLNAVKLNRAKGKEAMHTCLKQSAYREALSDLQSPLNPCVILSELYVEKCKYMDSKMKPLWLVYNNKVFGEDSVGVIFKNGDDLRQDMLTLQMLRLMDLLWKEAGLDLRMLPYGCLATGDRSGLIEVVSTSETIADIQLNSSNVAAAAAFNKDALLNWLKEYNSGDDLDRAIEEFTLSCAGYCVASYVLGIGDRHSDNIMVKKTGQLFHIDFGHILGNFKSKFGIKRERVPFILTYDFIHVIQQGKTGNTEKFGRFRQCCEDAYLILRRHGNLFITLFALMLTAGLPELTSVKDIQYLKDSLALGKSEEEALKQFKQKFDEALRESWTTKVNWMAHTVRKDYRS
T5 sequence (P48736 whole entry): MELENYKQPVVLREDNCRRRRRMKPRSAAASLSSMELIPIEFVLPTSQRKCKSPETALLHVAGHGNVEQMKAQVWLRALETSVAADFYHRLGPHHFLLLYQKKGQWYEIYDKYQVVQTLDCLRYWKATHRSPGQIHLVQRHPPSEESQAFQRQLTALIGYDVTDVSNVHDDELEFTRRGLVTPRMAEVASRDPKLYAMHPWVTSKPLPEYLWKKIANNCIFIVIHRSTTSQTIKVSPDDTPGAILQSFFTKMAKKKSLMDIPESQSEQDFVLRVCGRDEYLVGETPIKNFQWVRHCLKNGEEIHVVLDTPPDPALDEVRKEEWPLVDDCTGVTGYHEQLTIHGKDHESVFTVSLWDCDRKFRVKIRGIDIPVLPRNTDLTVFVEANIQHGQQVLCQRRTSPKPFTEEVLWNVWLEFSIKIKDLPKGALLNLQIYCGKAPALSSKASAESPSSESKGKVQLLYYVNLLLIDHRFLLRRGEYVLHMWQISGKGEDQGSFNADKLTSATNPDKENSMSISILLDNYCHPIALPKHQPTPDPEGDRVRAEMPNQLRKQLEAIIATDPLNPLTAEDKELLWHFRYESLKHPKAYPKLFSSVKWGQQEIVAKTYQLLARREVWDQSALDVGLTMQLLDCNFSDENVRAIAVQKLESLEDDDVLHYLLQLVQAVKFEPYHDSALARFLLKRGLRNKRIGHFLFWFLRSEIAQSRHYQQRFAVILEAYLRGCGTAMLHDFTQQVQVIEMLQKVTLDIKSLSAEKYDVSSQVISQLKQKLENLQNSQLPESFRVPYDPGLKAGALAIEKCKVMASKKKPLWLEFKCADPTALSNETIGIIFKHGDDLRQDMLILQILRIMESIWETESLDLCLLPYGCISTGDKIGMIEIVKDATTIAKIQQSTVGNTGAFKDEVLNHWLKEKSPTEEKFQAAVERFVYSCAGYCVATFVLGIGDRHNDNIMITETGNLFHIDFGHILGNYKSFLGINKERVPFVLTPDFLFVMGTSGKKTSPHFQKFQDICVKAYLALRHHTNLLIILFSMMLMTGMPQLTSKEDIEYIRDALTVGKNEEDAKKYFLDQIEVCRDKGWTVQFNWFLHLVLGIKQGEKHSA

SMILES	pKd [1]	pKd [2]	pIC50 [3]	pIC50 [4]	pKd [5]	pKd [6]	pKd [7]	melting point [°C]	pIC50 ([3]; Homo sapiens, PC-3, 1 h)	pIC50 ([4]; Homo sapiens, PC-3, 1 h)
Cc1c(F)cccc1CN(C)c1cc(C(=O)N2CC3(C2)CS(=O)(=O)C3)cc2ncc(N3CCOCC3)nc12 [Compound 308]	6.49	5.14			< 4.52	< 4.52	< 4.52	195	< 6.29	< 6.29
CC(Nc1ccc(F)c(F)c1)c1cc(C(=O)N2CCC[C@H](O)C2)cc2ncc(N3CCOCC3)nc12 (some centres unmarked) [Compound 302]	8.30	6.42			< 4.52	5.71	4.81	80	7.12	7.12
CC(Nc1cc(F)c(F)c(F)c1)c1cc(C(=O)O)cc2ncc(N3CCOCC3)nc12 (centres unmarked) [Compound 170]	8.30	6.54			5.36	6.21	5.65	285	< 6.29	< 6.29
CN(C)C(=O)c1cc(NCc2ccc(F)cc2)c2nc(N3CCOCC3)cnc2c1 [Compound 400]	7.62	5.80			4.58	5.63	4.73	80	6.34	~6.43
CC(Oc1ccc(F)c(F)c1)c1cc(C(=O)N(C)CCN(C)C)cc2ncc(N3CCOCC3)nc12 (centres unmarked) [Compound 353]	8.40	6.16			< 4.52	5.30	< 4.52	80	7.28	7.74
CCN(c1cccc(F)c1)C(C)c1cc(C(=O)N2CCOCC2)cc2ncc(N3CCOCC3)nc12 (centres unmarked) [Compound 20]	7.77	5.81			4.66	5.44	4.65	80	6.44	6.43
C[C@H](CO)NCc1cc(F)cc(N2CCCC2c2cc(C(=O)N(C)C)cc3ncc(N4CCOCC4)nc23)c1 (mixture of isomers) [Compound 48]	7.55	6.14			< 4.52	5.61	4.83	80	< 6.29	~6.34
CN(C)C(=O)c1cc(C2CCCN2c2ccc(C#N)c(F)c2)c2nc(N3CCOCC3)cnc2c1 (centres unmarked) [Compound 54]	6.94	5.15			4.57	4.79	< 4.52	80	< 6.29	< 6.29
CN(C)C(=O)c1cc(N2CCC2c2ccc(F)cc2)c2nc(N3CCOCC3)cnc2c1 (centres unmarked) [Compound 397]	7.44	6.18			< 4.52	5.57	4.64	70	< 6.29	< 6.29
CC(Nc1cc(F)cc(F)c1)c1cc(C=NO)cc2ncc(N3CCOCC3)nc12 (single isomer, unassigned) [Compound 225]	8.22	6.27			< 4.52	5.33	5.60	80	6.99	7.06
CC(Nc1cc(F)cc(F)c1)c1cc(C(=O)N2CCNC(C(F)(F)F)C2)cc2ncc(N3CCOCC3)nc12 (centres unmarked) [Compound 237]	9.00	6.86			< 4.52	6.54	5.03	80	7.70	7.96
CC(C)NCCNC(=O)c1cc(C(C)Nc2cccc(F)c2)c2nc(N3CCOCC3)cnc2c1 (single isomer, unassigned) [Compound 227]	9.00	6.47	7.57	7.70	< 4.52	5.75	5.42	80		
O=C(c1cc(C2CCCN2c2cc(F)cc(F)c2)c2nc(N3CCOCC3)cnc2c1)N1CC2(C1)CS(=O)(=O)C2 (centres unmarked) [Compound 34]	9.40	7.52			< 4.52	7.30	6.03	160	> 9.10	8.52
CC(Oc1cc(F)ccc1Br)c1cc(C(=O)N(C)C)cc2ncc(N3CCOCC3)nc12 (centres unmarked) [Compound 78]	7.82	5.93			< 4.52	5.43	4.87	235	~6.66	~6.53
Cc1cccc(N(C)C(C)c2cc(C(=O)N(C)C)cc3ncc(N4CCOCC4)nc23)c1 (single isomer, unassigned) [Compound 127]	7.49	5.64			4.59	5.19	4.66	80	~6.34	6.48
CC(Nc1cc(F)cc(F)c1)c1cc(CO)cc2ncc(N3CCOCC3)nc12 (centres unmarked) [Compound 84]	9.00	7.02			5.07	6.16	5.89	80	7.25	7.49

Continued, values first:

pKd [1]	pKd [2]	pIC50 [3]	pIC50 [4]	pKd [5]	pKd [6]	pKd [7]	melting point [°C]	pIC50 ([3]; Homo sapiens, PC-3, 1 h)	pIC50 ([4]; Homo sapiens, PC-3, 1 h)	SMILES
9.52	6.97	6.97	7.40	< 4.52	5.91	5.58	128			CN[C@H]1CCN(C(=O)c2cc(C(C)Oc3ccc(F)c(F)c3)c3nc(N4CCOCC4)cnc3c2)C1 (single isomer, unassigned) [Compound 370a]
7.96	5.47	6.73	6.68	< 4.52	5.08	4.87	80			CNCCN(C)C(=O)c1cc(C(C)Nc2cc(F)c(F)c(F)c2)c2nc(N3CCOCC3)cnc2c1 (single isomer, unassigned) [Compound 335b]
9.00	6.76			< 4.52	6.08	5.33	118	7.74	8.10	CC(Nc1cccc(F)c1)c1cc(C(=O)N2CC[C@@H](O)C2)cc2ncc(N3CCOCC3)nc12 (single isomer, unassigned) [Compound 321a]
8.70	6.54	< 6.99	7.25	< 4.52	5.67	5.08	75			CNCCNC(=O)c1cc(C(C)Oc2ccc(F)c(F)c2)c2nc(N3CCOCC3)cnc2c1 (single isomer, unassigned) [Compound 344a]
6.26	4.81	< 6.29	< 6.29	< 4.52	< 4.52	< 4.52	80			CN[C@H]1CCN(C(=O)c2cc(C(C)Oc3ccc(F)c(F)c3)c3nc(N4CCOCC4)cnc3c2)C1 (single isomer, unassigned) [Compound 370b]
8.70	6.72			< 4.52	5.83	5.26	140	7.54	7.72	CC(Nc1ccc(F)c(F)c1)c1cc(C(=O)N2CC[C@@H](O)C2)cc2ncc(N3CCOCC3)nc12 (single isomer, unassigned) [Compound 300a]
